For data set [1], the target named is human recombinant transporter protein norepinephrine (NET) (Homo sapiens (Human), UniProt P23975). Nature of the data set: radioligand binding assay, norepinephrine transporter. Particulars: 11 test concentrations 0.1 nM to 1 μM, duplicates, hydrochloride salts. As to the method:
(§1) The monoamine transporters inhibitory activities of selected cycloalkylmethylamines of Formula (I) are reported herein. The compounds were evaluated using well established radioligand binding assays protocols (Galli, A. et al., J. Exp. Biol. 1995, 198, 2197-2212; Giros, B. et al., Trends Pharmcol. Sci. 1993, 14, 43-49; Gu, H. et al., J. Biol. Chem. 1994, 269(10), 7124-7130; Shearman, L. P. et al, Am. J. Physiol., 1998, 275(6 Pt 1), C1621-1629; Wolf, W. A. et al., J. Biol. Chem. 1992, 267(29), 20820-20825). The human recombinant transporter proteins dopamine (DAT), norepinephrine (NET) and serotonin (SERT) were selected for the in vitro assays. The radioligand binding assays were carried out at 11 different test concentrations 0.1 nM to 1 μM.
(§2) The assays were carried out in duplicates and the quantitative data are reported as Ki in the Table 1.

The target in data set [2] is human recombinant transporter protein dopamine (DAT) (Homo sapiens (Human), UniProt Q01959). Nature of the data set: radioligand binding assay, dopamine transporter. Particulars: 11 test concentrations 0.1 nM to 1 μM, duplicates, hydrochloride salts. As to the method: as §1, §2
The target in data set [3] is human recombinant transporter protein serotonin (SERT) (Homo sapiens (Human), UniProt P31645). The experiment in a line: radioligand binding assay, serotonin transporter. Particulars: 11 test concentrations 0.1 nM to 1 μM, duplicates, hydrochloride salts. As to the method: as §1, §2
For data set [4] the following is noted: active metabolites of sibutramine; cited from earlier work.

SMILES strings stand for the structures.

Sequence of human recombinant transporter protein norepinephrine (NET) (P23975 whole entry): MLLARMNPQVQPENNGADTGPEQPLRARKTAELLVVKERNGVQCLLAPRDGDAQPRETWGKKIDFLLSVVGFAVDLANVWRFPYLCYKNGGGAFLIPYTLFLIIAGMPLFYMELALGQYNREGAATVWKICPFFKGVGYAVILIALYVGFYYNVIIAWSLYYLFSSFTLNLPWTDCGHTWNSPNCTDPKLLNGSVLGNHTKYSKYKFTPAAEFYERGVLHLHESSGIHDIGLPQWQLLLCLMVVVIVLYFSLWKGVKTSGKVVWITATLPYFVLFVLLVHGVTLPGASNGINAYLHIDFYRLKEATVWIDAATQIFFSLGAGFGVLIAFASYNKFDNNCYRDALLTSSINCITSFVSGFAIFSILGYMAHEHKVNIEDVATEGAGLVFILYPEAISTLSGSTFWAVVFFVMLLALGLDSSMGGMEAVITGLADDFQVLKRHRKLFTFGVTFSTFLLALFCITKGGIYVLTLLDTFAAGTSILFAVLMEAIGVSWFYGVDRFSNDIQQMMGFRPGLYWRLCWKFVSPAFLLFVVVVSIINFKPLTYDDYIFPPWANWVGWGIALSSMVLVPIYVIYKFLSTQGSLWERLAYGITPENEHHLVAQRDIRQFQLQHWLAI
Sequence of human recombinant transporter protein dopamine (DAT) (Q01959 whole entry): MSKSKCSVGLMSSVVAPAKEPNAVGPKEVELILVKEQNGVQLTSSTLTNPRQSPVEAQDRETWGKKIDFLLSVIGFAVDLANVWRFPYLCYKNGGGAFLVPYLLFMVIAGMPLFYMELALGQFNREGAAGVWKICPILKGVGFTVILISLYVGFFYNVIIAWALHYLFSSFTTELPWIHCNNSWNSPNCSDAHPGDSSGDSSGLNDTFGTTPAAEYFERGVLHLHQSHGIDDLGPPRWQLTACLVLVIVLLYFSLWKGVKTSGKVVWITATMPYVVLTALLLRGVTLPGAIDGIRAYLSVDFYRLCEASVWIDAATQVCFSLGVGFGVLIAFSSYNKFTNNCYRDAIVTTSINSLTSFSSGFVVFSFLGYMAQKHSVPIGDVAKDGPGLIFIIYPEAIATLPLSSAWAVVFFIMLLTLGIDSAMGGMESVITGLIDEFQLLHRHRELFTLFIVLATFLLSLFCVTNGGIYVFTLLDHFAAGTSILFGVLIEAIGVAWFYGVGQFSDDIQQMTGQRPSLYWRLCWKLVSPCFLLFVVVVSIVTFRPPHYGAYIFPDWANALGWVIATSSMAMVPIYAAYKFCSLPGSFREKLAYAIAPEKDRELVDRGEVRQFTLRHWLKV

Turning to `CCOCCCCN[C@H](CC(C)C)C1(c2ccc(Cl)c(Cl)c2)CCC1` [Compound 8j, (R)-1-(1-(3,4-Dichlorophenyl)cyclobutyl)-N-(4-ethoxybutyl)-3-methylbutan-1-amine], the values for the Ki in data set [1], in data set [2] and in data set [3] were 11 nM, 1.16 nM and 0.8 nM, respectively.

Turning to `CCS(=O)(=O)CCCCNC(CC(C)C)C1(c2ccc(Cl)c(Cl)c2)CCC1` (centres unmarked) [Compound 17a, 1-(1-(3,4-Dichlorophenyl)cyclobutyl)-N-(4-(ethylsulfonyl)butyl)-3-methylbutan-1-amine], the Ki in data set [1] was found to be 44.7 nM; in data set [2] it was 29.4 nM; in data set [3], 38.4 nM.

In the case of `CCCCSCCCCNC(CC(C)C)C1(c2ccc(Cl)c(Cl)c2)CCC1` (centres unmarked) [Compound 13d, N-(4-(Butylthio)butyl)-1-(1-(3,4-dichlorophenyl)cyclobutyl)-3-methylbutan-1-amine], the Ki in data set [1] came to 51 nM; in data set [2] it was 104 nM; in data set [3], 65.3 nM.

Turning to `CCCOCCCN[C@H](CC(C)C)C1(c2ccc(Cl)c(Cl)c2)CCC1` [Compound 8d, (R)-1-(1-(3,4-Dichlorophenyl)cyclobutyl)-N-(3-propoxypropyl)-3-methylbutan-1-amine], the figures for the Ki in data set [1], in data set [2] and in data set [3] were 72 nM, 5.45 nM and 3.8 nM, respectively.

As for `CCOCCCCNC(CC(C)C)C1(c2ccc(SC)cc2)CCC1` (centres unmarked) [Compound 7g, N-(4-Ethoxybutyl)-3-methyl-1-(1-(4-(methylthio)phenyl)cyclobutyl)butan-1-amine], the Ki amounted to 37.2 nM in data set [1], 92 nM in data set [2] and 2.99 nM in data set [3].

As to `CNC(CC(C)C)C1(c2ccc(Cl)cc2)CCC1` (centres unmarked) [Compound M1], the elimination half-life in data set [4] is 14 h.

Regarding `CCSCCNC(CC)C1(c2ccc(Cl)c(Cl)c2)CCC1` (centres unmarked) [Compound 13f, 1-(1-(3,4-dichlorophenyl)cyclobutyl)-N-(2-(ethylthio)ethyl)propan-1-amine], the Ki in data set [1] worked out at 119 nM; in data set [2] it was 49.2 nM; in data set [3] it was 224 nM.

Consider `CCOCCNC(CC(C)C)C1(c2ccc(Cl)c(Cl)c2)CCC1` (centres unmarked) [Compound 8a, 1-(1-(3,4-Dichlorophenyl)cyclobutyl)-N-(2-ethoxyethyl)-3-methylbutan-1-amine], for which the figures for the Ki in data set [1], in data set [2] and in data set [3] were 46.7 nM, 2.38 nM and 1.4 nM, respectively.

In the case of `CCOc1ccc(C2(C(CC(C)C)NCCSCC)CCC2)cc1` (centres unmarked) [Compound 12c, 1-(1-(4-Ethoxyphenyl)cyclobutyl)-N-(2-(ethylthio)ethyl)-3-methylbutan-1-amine], the figures for the Ki in data set [1], in data set [2] and in data set [3] were 1420 nM, 116 nM and 3.31 nM, respectively.

With `CC(C)CC(N)C1(c2ccc(Cl)cc2)CCC1` (centres unmarked) [Compound M2], the elimination half-life in data set [4] is 16 h.

Turning to `CCSCCCCNC(CC(C)C)C1(c2ccc(Cl)cc2)CCC1` (centres unmarked) [Compound 12b, 1-(1-(4-Chlorophenyl)cyclobutyl)-N-(4-(ethylthio)butyl)-3-methylbutan-1-amine], the Ki in data set [1] is 51.9 nM; in data set [2], 67.6 nM; in data set [3], 18.8 nM.

As for `CCSCCCCNC(CC(C)C)C1(c2ccc(Cl)c(Cl)c2)CCC1` (centres unmarked) [Compound 13c, 1-(1-(3,4-Dichlorophenyl)cyclobutyl)-N-(4-(ethylthio)butyl)-3-methylbutan-1-amine], the Ki came to 17.1 nM in data set [1], 23.9 nM in data set [2] and 14.8 nM in data set [3].

As to `COCCCCN[C@H](CC(C)C)C1(c2ccc(Cl)c(Cl)c2)CCC1` [Compound 8h, (R)-1-(1-(3,4-Dichlorophenyl)cyclobutyl)-N-(4-methoxybutyl)-3-methylbutan-1-amine], the Ki in data set [1] was determined as 12.7 nM; in data set [2] it was 2.39 nM; in data set [3], 1.19 nM.

Usually Ki stands for a measure of affinity in units of concentration, obtained from inhibition or displacement.

Source of the values: patent US9238625B2, “Compositions, synthesis, and methods of using phenylcycloalkylmethylamine derivatives” (Reviva Pharmaceuticals, Inc., priority 2011, dated 2016).
